Columns and labels:
[1] = Antiproliferative activity against p53 deficient human Saos2 cells; settings: SAOS-2
SJSA-1 = assay: Antiproliferative activity against p53 positive human SJSA1 cells
[2] = target: Tumour suppressor p53/oncoprotein Mdm2 (Homo sapiens, UniProt Q00987); assay: Inhibition of p53-MDM2 interaction (unknown origin) by TR-FRET assay; assay type: protein assay
Chain of Tumour suppressor p53/oncoprotein Mdm2 (P04637 whole entry): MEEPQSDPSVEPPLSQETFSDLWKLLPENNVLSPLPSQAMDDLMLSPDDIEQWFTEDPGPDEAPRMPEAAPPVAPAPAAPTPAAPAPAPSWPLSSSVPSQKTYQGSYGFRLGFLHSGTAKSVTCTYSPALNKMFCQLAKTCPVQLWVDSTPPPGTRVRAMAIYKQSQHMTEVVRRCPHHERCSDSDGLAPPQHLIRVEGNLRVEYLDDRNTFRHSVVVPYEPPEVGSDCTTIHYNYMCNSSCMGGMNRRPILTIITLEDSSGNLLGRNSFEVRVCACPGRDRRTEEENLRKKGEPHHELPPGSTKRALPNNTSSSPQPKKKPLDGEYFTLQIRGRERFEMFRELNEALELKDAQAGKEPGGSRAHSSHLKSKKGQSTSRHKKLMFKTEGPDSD
Chain of Tumour suppressor p53/oncoprotein Mdm2 (Q00987 whole entry): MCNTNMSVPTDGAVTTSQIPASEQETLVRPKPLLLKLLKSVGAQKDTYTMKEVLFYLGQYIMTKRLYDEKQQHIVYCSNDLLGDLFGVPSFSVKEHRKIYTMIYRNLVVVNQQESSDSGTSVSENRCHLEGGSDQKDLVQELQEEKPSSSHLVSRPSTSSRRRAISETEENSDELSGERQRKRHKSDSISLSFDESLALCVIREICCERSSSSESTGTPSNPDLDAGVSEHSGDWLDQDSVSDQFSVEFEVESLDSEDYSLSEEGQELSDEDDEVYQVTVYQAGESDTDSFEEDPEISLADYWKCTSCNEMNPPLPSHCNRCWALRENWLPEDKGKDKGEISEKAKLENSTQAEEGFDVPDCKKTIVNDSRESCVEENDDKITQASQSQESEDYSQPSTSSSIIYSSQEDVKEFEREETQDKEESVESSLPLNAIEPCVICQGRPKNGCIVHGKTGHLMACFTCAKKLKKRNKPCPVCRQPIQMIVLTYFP

| SMILES | IC50 (SJSA-1) | IC50 [2] | IC50 [1] |
| --- | --- | --- | --- |
| CC[C@@H](C)Oc1cc2c(cc1OC)CC(=O)N(c1ccc(N(C)Cc3ccncc3)cc1)[C@@H]2c1ccc(Cl)cc1 | 29600 nM |  | > 30000 nM |
| CC[C@@H](C)Oc1cc2c(cc1OC)CC(=O)N(c1ccc(N(C)Cc3cccc(F)c3)cc1)C2c1ccc(Cl)cc1 (some centres not stated) |  | 170 nM |  |
| CC[C@@H](C)Oc1cc2c(cc1OC)CC(=O)N(c1ccc(N(C)Cc3ccc(F)cc3)cc1)C2c1ccc(Cl)cc1 (some centres not stated) |  | 120 nM |  |
| CC[C@@H](C)Oc1cc2c(cc1OC)CC(=O)N(c1ccc(N(C)Cc3cccnc3)cc1)C2c1ccc(Cl)cc1 (some centres not stated) |  | 15 nM |  |
| CCOc1cc2c(cc1OCC)C(c1ccc(Cl)cc1)N(c1ccc(OC)cc1)C(=O)C2 (racemic) | 16600 nM | 540 nM | 19600 nM |

Second part, led by results:

| IC50 (SJSA-1) | IC50 [2] | SMILES | IC50 [1] |
| --- | --- | --- | --- |
| 1200 nM |  | CC[C@@H](C)Oc1cc2c(cc1OC)CC(=O)N(c1ccc(N(C)Cc3ccncc3)cc1)[C@H]2c1ccc(Cl)cc1 | 12000 nM |
|  | 1400 nM | CCOc1cc2c(cc1OCC)C(c1ccc(Cl)cc1)N(c1cccc(Cl)c1)C(=O)C2 (racemic) |  |
|  | 1000 nM | CCOc1cc2c(cc1OCC)C(c1ccc(Cl)cc1)N(c1ccc(Cl)cc1)C(=O)C2 (racemic) |  |
